Read-outs that look alike come from different tables or passages of the source.
What was measured:
Type in all cases: cell-based
hGIPR = molecular target: T1, hGIPR (Homo sapiens, UniProt P48546); test: Functional cAMP formation (HTRF) in HEK-293 clonal cells expressing hGIPR, 0.1% bovine casein, without or with 1.0% human serum albumin; conditions: for Emax: percent of maximal response to GIP(1-42)NH2; for EC50: cAMP, 0.1% bovine casein (no human serum albumin), geometric mean
T1 construct: expressed in transfected cells
T1 sequence (P48546 22-466): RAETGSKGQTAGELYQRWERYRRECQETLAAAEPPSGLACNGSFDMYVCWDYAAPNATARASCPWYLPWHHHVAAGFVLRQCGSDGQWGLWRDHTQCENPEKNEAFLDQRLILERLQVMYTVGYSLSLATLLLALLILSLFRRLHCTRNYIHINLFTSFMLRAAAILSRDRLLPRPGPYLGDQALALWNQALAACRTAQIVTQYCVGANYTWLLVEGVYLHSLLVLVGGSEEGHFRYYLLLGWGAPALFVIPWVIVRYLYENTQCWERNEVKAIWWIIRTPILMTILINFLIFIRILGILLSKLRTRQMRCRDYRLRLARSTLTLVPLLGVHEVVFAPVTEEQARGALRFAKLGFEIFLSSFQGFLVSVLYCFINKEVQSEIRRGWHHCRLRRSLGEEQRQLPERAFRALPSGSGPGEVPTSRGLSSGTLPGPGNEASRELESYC
Procedure, shortened: (§1)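 Readings of the HTRF 665/620 nm ratio, which falls as cAMP rises, were converted to nM cAMP using a standard curve after 30 min peptide exposure at 37° C.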

hGCGR = molecular target: T2, hGCGR (Homo sapiens, UniProt P47871); test: Functional cAMP formation (HTRF) in HEK-293 clonal cells expressing hGCGR, 0.1% bovine casein, without or with 1.0% human serum albumin; conditions: 37° C.
T2 construct: expressed in transfected cells
T2 sequence (P47871 26-477): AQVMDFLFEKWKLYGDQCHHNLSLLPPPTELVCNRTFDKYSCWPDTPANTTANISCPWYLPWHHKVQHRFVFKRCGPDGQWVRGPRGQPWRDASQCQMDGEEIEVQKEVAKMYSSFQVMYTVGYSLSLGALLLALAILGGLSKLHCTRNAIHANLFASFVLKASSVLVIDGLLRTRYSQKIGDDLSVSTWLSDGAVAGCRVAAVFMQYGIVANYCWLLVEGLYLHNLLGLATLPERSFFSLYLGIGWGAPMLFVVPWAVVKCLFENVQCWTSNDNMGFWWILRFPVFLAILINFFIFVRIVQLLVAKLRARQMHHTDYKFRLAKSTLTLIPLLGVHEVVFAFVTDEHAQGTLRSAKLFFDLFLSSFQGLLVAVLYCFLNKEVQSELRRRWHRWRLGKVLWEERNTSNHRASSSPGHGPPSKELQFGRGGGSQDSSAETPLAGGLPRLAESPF
Procedure, shortened: as §1

hGLP-1R = hGLP-1R (Homo sapiens, UniProt P43220); test: Functional cAMP formation (HTRF) in HEK-293 clonal cells expressing hGLP-1R, 0.1% bovine casein, without or with 1.0% human serum albumin; parameters: expressed in transfected cells; conditions: for Emax: percent of maximal response to GLP-1(7-36)NH2; for EC50: cAMP, 0.1% bovine casein (no human serum albumin), geometric mean
hGLP-1R, sequence (P43220 24-463): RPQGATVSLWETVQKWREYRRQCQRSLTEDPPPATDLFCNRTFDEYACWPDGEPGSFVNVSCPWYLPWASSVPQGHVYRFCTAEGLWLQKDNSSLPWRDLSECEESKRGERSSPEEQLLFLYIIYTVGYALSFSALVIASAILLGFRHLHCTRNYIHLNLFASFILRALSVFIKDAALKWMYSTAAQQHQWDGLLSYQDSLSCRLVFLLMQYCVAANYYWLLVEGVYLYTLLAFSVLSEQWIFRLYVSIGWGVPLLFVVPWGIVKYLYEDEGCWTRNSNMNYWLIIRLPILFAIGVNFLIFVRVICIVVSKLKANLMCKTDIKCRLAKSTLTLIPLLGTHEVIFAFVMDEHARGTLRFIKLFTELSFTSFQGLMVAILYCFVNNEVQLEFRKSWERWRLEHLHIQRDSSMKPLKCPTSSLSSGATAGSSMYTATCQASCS
Procedure, shortened: as §1

[1] = HEK293, read-out: hGIPR Emax, % ± SEM, 0.1% bovine casein and 1.0% human serum albumin, 37° C.
[2] = HEK293, read-out: hGIPR Emax, % ± SEM, cAMP, 37° C., 0.1% bovine casein, arithmetic mean
[3] = hGIPR EC50, nM (SEM, n), 37° C.
[4] = hGCGR EC50, nM (SEM, n), 0.1% bovine casein and 1.0% human serum albumin, geometric mean
[5] = hGCGR EC50, nM (SEM, n), cAMP, 0.1% bovine casein (no human serum albumin), geometric mean
[6] = hGLP-1R EC50, nM (SEM, n), 37° C.
[7] = HEK293, cAMP, 37° C., 0.1% bovine casein and 1.0% human serum albumin, read-out: hGIPR Emax, % ± SEM
[8] = cAMP, 0.1% bovine casein (no human serum albumin), geometric mean, read-out: hGCGR EC50, nM (SEM, n)
[9] = cAMP, 0.1% bovine casein and 1.0% human serum albumin, geometric mean (SEM, n), read-out: hGCGR EC50, nM (SEM, n)
[10] = HEK293, cAMP, 37° C., 0.1% bovine casein, arithmetic mean, read-out: hGLP-1R Emax, % ± SEM
[11] = 37° C., read-out: hGLP-1R EC50, nM (SEM, n)

With `CC[C@H](C)[C@H](NC(=O)[C@H](CC(C)C)NC(=O)[C@](C)(Cc1ccc(O)cc1)NC(=O)[C@@H](CCC(=O)O)NC(=O)[C@@H](NC(=O)[C@H](Cc1ccccc1)NC(=O)[C@H](CCCCNC(=O)COCCOCCNC(=O)COCCOCCNC(=O)CC[C@H](NC(=O)CCCCCCCCCOc1ccc(C(=O)O)cc1)C(=O)O)NC(=O)C(C)(C)NC(=O)[C@H](CCC(N)=O)NC(=O)[C@H](C)NC(=O)[C@H](CCCCNC(=O)COCCOCCNC(=O)COCCOCCNC(=O)CC[C@H](NC(=O)CCCCCCCCCOc1ccc(C(=O)O)cc1)C(=O)O)NC(=O)[C@H](CCCN)NC(=O)[C@H](CC(=O)O)NC(=O)[C@H](CC(C)C)NC(=O)[C@](C)(CC(C)C)NC(=O)[C@@H](NC(=O)C(C)(C)NC(=O)[C@@H](NC(=O)[C@H](CC(=O)O)NC(=O)[C@H](CO)NC(=O)[C@@H](NC(=O)[C@](C)(Cc1ccccc1F)NC(=O)[C@@H](NC(=O)CNC(=O)[C@H](CCC(=O)O)NC(=O)C(C)(C)NC(=O)[C@@H](N)Cc1ccc(O)cc1)[C@@H](C)O)[C@@H](C)O)C(C)C)[C@@H](C)CC)[C@@H](C)CC)C(=O)N[C@@H](CCC(=O)O)C(=O)NCC(=O)NCC(=O)N1CCC[C@H]1C(=O)N[C@@H](CO)C(=O)N[C@@H](CO)C(=O)NCC(=O)N[C@@H](C)C(=O)N1CCC[C@H]1C(=O)N1CCC[C@H]1C(=O)N1CCC[C@H]1C(=O)N[C@@H](CO)C(N)=O` [Example 319] the Emax (hGIPR; [1]) was 92.5%, the Emax (hGIPR; [2]) was 98.1% and the EC50 (hGIPR; [3]) was 0.0196 nM. The EC50 (hGCGR; [4]) was > 9950 nM, the EC50 (hGCGR; [5]) was > 9950 nM and the Emax (hGLP-1R; HEK293, read-out: hGLP-1R Emax, % ± SEM, 0.1% bovine casein and 1.0% human serum albumin, 37° C.) was 114%. The Emax (hGLP-1R; HEK293, read-out: hGLP-1R Emax, % ± SEM, cAMP, 37° C., 0.1% bovine casein, arithmetic mean) was 100% and the EC50 (hGLP-1R; [6]) was 0.18 nM.
In the case of `CC[C@H](C)[C@H](NC(=O)[C@H](CC(C)C)NC(=O)[C@](C)(Cc1ccc(O)cc1)NC(=O)[C@@H](CCC(=O)O)NC(=O)[C@@H](NC(=O)[C@H](Cc1ccccc1)NC(=O)[C@H](CCCCNC(=O)COCCOCCNC(=O)COCCOCCNC(=O)CC[C@H](NC(=O)CCCCCCCCCOc1ccc(C(=O)O)cc1)C(=O)O)NC(=O)C(C)(C)NC(=O)[C@H](CCC(N)=O)NC(=O)[C@H](C)NC(=O)[C@H](CCCCNC(=O)COCCOCCNC(=O)COCCOCCNC(=O)CC[C@H](NC(=O)CCCCCCCCCOc1ccc(C(=O)O)cc1)C(=O)O)NC(=O)[C@H](CCCN)NC(=O)[C@H](CC(=O)O)NC(=O)[C@H](CC(C)C)NC(=O)[C@](C)(CC(C)C)NC(=O)[C@@H](NC(=O)[C@H](CO)NC(=O)[C@H](CCc1ccc(O)cc1)NC(=O)[C@H](CC(=O)O)NC(=O)[C@H](CO)NC(=O)[C@@H](NC(=O)[C@](C)(Cc1ccccc1F)NC(=O)[C@@H](NC(=O)CNC(=O)[C@H](CCC(=O)O)NC(=O)C(C)(C)NC(=O)[C@@H](N)Cc1ccc(O)cc1)[C@@H](C)O)[C@@H](C)O)[C@@H](C)CC)[C@@H](C)CC)C(=O)N[C@@H](CCC(=O)O)C(=O)NCC(=O)NCC(=O)N1CCC[C@H]1C(=O)N[C@@H](CO)C(=O)N[C@@H](CO)C(=O)NCC(=O)N[C@@H](C)C(=O)N1CCC[C@H]1C(=O)N1CCC[C@H]1C(=O)N1CCC[C@H]1C(=O)N[C@@H](CO)C(N)=O` [Example 320], the Emax (hGIPR; [1]) is reported as 84.1%, the Emax (hGIPR; [2]) is reported as 94.2% and the EC50 (hGCGR; [4]) is reported as > 9950 nM. For the same compound, the EC50 (hGCGR; [5]) was > 9950 nM and the EC50 (hGLP-1R; [6]) was 0.246 nM.
`CCCC[C@H](NC(=O)[C@H](CC(=O)O)NC(=O)[C@H](CO)NC(=O)[C@@H](NC(=O)[C@](C)(Cc1ccccc1F)NC(=O)[C@@H](NC(=O)CNC(=O)[C@H](CCC(=O)O)NC(=O)C(C)(C)NC(=O)[C@@H](N)Cc1ccc(O)cc1)[C@@H](C)O)[C@@H](C)O)C(=O)N[C@@H](CO)C(=O)N[C@H](C(=O)N[C@@](C)(CC(C)C)C(=O)N[C@@H](CC(C)C)C(=O)N[C@@H](CC(=O)O)C(=O)N[C@@H](CCCN)C(=O)N[C@@H](CCCCNC(=O)COCCOCCNC(=O)COCCOCCNC(=O)CC[C@H](NC(=O)CCCCCCCCCOc1ccc(C(=O)O)cc1)C(=O)O)C(=O)N[C@@H](C)C(=O)N[C@@H](CCC(N)=O)C(=O)NC(C)(C)C(=O)N[C@@H](CCCCNC(=O)COCCOCCNC(=O)COCCOCCNC(=O)CC[C@H](NC(=O)CCCCCCCCCOc1ccc(C(=O)O)cc1)C(=O)O)C(=O)N[C@@H](Cc1ccccc1)C(=O)N[C@H](C(=O)N[C@H](CCC(=O)O)C(=O)N[C@@](C)(Cc1ccc(O)cc1)C(=O)N[C@@H](CC(C)C)C(=O)N[C@H](C(=O)N[C@@H](CCC(=O)O)C(=O)NCC(=O)NCC(=O)N1CCC[C@H]1C(=O)N[C@@H](CO)C(=O)N[C@@H](CO)C(=O)NCC(=O)N[C@@H](C)C(=O)N1CCC[C@H]1C(=O)N1CCC[C@H]1C(=O)N1CCC[C@H]1C(=O)N[C@@H](CO)C(N)=O)[C@@H](C)CC)[C@@H](C)CC)[C@@H](C)CC` [Example 321] was tested, and the Emax (hGIPR; [1]) was 94.5%, the EC50 (hGIPR; [3]) was 0.0107 nM and the EC50 (hGCGR; [4]) was > 9950 nM. For the same compound, the EC50 (hGCGR; [5]) was > 9950 nM and the EC50 (hGLP-1R; [6]) was 0.295 nM.
For `CCCCCCCCCCCC(=O)N[C@@H](CCC(=O)NCCOCCOCC(=O)NCCOCCOCC(=O)NCCCC[C@H](NC(=O)[C@H](CCCN)NC(=O)[C@H](CC(=O)O)NC(=O)[C@H](CC(C)C)NC(=O)[C@](C)(CC(C)C)NC(=O)[C@@H](NC(=O)[C@H](CO)NC(=O)[C@H](CCc1ccc(O)cc1)NC(=O)[C@H](CC(=O)O)NC(=O)[C@H](CO)NC(=O)[C@@H](NC(=O)[C@](C)(Cc1ccccc1F)NC(=O)[C@@H](NC(=O)CNC(=O)[C@H](CCC(=O)O)NC(=O)C(C)(C)NC(=O)[C@@H](N)Cc1ccc(O)cc1)[C@@H](C)O)[C@@H](C)O)[C@@H](C)CC)C(=O)N[C@@H](C)C(=O)N[C@@H](CCC(N)=O)C(=O)NC(C)(C)C(=O)N[C@@H](CCCCNC(=O)COCCOCCNC(=O)COCCOCCNC(=O)CC[C@H](NC(=O)CCCCCCCCCCC)C(=O)O)C(=O)N[C@@H](Cc1ccccc1)C(=O)N[C@H](C(=O)N[C@H](CCC(=O)O)C(=O)N[C@@](C)(Cc1ccc(O)cc1)C(=O)N[C@@H](CC(C)C)C(=O)N[C@H](C(=O)N[C@@H](CCC(=O)O)C(=O)NCC(=O)NCC(=O)N1CCC[C@H]1C(=O)N[C@@H](CO)C(=O)N[C@@H](CO)C(=O)NCC(=O)N[C@@H](C)C(=O)N1CCC[C@H]1C(=O)N1CCC[C@H]1C(=O)N1CCC[C@H]1C(=O)N[C@@H](CO)C(N)=O)[C@@H](C)CC)[C@@H](C)CC)C(=O)O` [Example 323], the Emax (hGIPR; [7]) was 92.9%, the EC50 (hGCGR; [8]) was > 9950 nM and the EC50 (hGCGR; [9]) was > 9950 nM. It also gave an Emax (hGLP-1R; [10]) of 92.6% and an EC50 (hGLP-1R; [11]) of 0.203 nM.
For `CC[C@H](C)[C@H](NC(=O)[C@H](CC(C)C)NC(=O)[C@](C)(Cc1ccc(O)cc1)NC(=O)[C@@H](CCC(=O)O)NC(=O)[C@@H](NC(=O)[C@H](Cc1ccccc1)NC(=O)[C@H](CCC(=O)O)NC(=O)C(C)(C)NC(=O)[C@H](CCC(N)=O)NC(=O)[C@H](C)NC(=O)[C@H](CCCCNC(=O)COCCOCCNC(=O)COCCOCCNC(=O)CC[C@H](NC(=O)CCCCCCCCCCCCC(=O)O)C(=O)O)NC(=O)[C@H](CCCN)NC(=O)[C@H](CC(=O)O)NC(=O)[C@H](CC(C)C)NC(=O)[C@](C)(CC(C)C)NC(=O)[C@@H](NC(=O)C(C)(C)NC(=O)[C@@H](NC(=O)[C@H](CC(=O)O)NC(=O)[C@H](CO)NC(=O)[C@@H](NC(=O)[C@](C)(Cc1ccccc1F)NC(=O)[C@@H](NC(=O)CNC(=O)[C@H](CCC(=O)O)NC(=O)C(C)(C)NC(=O)[C@@H](N)Cc1ccc(O)cc1)[C@@H](C)O)[C@@H](C)O)C(C)C)[C@@H](C)CC)[C@@H](C)CC)C(=O)N[C@@H](CCCCNC(=O)COCCOCCNC(=O)COCCOCCNC(=O)CC[C@H](NC(=O)CCCCCCCCCCCCC(=O)O)C(=O)O)C(=O)NCC(=O)NCC(=O)N1CCC[C@H]1C(=O)N[C@@H](CO)C(=O)N[C@@H](CO)C(=O)NCC(=O)N[C@@H](C)C(=O)N1CCC[C@H]1C(=O)N1CCC[C@H]1C(=O)N1CCC[C@H]1C(=O)N[C@@H](CO)C(N)=O` [Example 325], the Emax (hGIPR; [7]) was 94.7%, the EC50 (hGIPR; 37° C., read-out: hGIPR EC50, nM (SEM, n)) was 0.0485 nM and the EC50 (hGCGR; [8]) was > 9950 nM. For the same compound, the EC50 (hGCGR; [9]) was > 9950 nM, the Emax (hGLP-1R; [10]) was 97.8% and the EC50 (hGLP-1R; [11]) was 0.225 nM.
